Test results taken from ChEMBL document CHEMBL1125329, “4-Oxospiro[benzopyran-2,4'-piperidines] as class III antiarrhythmic agents. Pharmacological studies on 3,4-dihydro-1'-[2-(benzofurazan-5-yl)- ethyl]-6-methanesulfonamidospiro[(2H)-1-benzopyran-2,4'-piperidin]-4-on e (L-691,121)” (J Med Chem, 1992).

Columns and labels:
[1] = biological target: T1, Alpha-1A adrenergic receptor (Bos taurus, UniProt P18130); assay: Compound was evaluated for binding affinity at bovine brain Alpha-1 adrenergic receptor in a filtration-based assay using [3H]prazosin as the radioligand
T1 sequence (P18130 whole entry): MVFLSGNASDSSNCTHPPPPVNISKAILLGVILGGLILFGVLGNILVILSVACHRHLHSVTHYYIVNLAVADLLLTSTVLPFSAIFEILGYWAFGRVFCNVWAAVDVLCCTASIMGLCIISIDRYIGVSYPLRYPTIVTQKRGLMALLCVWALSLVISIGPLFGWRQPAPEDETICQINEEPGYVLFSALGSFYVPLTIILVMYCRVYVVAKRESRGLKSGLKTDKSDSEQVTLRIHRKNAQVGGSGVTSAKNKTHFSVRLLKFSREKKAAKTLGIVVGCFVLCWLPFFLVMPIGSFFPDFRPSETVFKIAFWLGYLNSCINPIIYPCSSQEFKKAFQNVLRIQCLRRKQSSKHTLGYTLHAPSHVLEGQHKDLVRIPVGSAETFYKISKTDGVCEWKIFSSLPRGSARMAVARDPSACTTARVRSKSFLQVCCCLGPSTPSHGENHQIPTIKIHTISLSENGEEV

Mustela putorius furo = organism: Mustela putorius furo; assay: Compound was evaluated for the molar concentration required to prolong effective refractory period (ERP) 25% above baseline in ferret isolated right ventricular papillary muscles using a paired pacing protocol; type: functional, Muscle tissue
Canis familiaris = assay: Compound was evaluated for the intravenous dose required to prolong relative refractory period (RRP) 20 ms above baseline in chloralose anesthetized dogs using a paired pacing protocol; type: functional; details: Canis lupus familiaris
[2] = biological target: T1, Alpha-1A adrenergic receptor; assay: Compound was evaluated for binding affinity at bovine brain Alpha-1 adrenergic receptor determined in a filtration-based assay using [3H]prazosin as the radioligand.

SMILES | IC50 [1] [nM] | IC50 [2] [nM] | EC25 (Mustela putorius furo) [nM] | ED20 (Canis familiaris) [µg/kg]
CS(=O)(=O)Nc1cccc2c1OC1(CCN(CCc3ccccn3)CC1)CC2=O.Cl.O |  |  | 7400 | 
CS(=O)(=O)Nc1ccc2c(c1)CCC1(CCN(CCc3ccc4nonc4c3)CC1)O2.Cl | 3000 |  | 54 | 
CS(=O)(=O)Nc1ccc2c(c1)C(O)CC1(CCN(CCc3ccc4nonc4c3)CC1)O2.Cl (centres undefined) | 2300 |  | 900 | 200
Cl.O=C1CC2(CCN(CCc3ccccn3)CC2)Oc2ccccc21 |  |  | 160 | 500
CS(=O)(=O)Nc1ccc2c(c1)C(=O)CC1(CCN(CCc3ccc4nonc4c3)CC1)O2.Cl |  |  | 13 | 2.8
CS(=O)(=O)Nc1ccc2c(c1)OC1(CCN(CCc3ccccn3)CC1)CC2=O.Cl.O |  |  | 6600 | 
Cc1cccc(CCN2CCC(C(=O)c3ccc(NS(C)(=O)=O)cc3)CC2)n1 |  |  | 58 | 17.4
CN(CCOc1ccc(NS(C)(=O)=O)cc1)CCc1ccc(NS(C)(=O)=O)cc1 [DOFETILIDE] |  |  | 18 | 5.2

Now from value to compound, other results behind:

IC50 [1] [nM] | IC50 [2] [nM] | SMILES | EC25 (Mustela putorius furo) [nM] | ED20 (Canis familiaris) [µg/kg]
15000 |  | CS(=O)(=O)Nc1ccc(CCN2CCC3(CC2)CC(=O)c2cc(NS(C)(=O)=O)ccc2O3)cc1.Cl | 74 | 3
1000 |  | CS(=O)(=O)Nc1ccc2c(c1)C(=O)CC1(CCN(CCc3ccc(C#N)cc3)CC1)O2.Cl | 3 | 7
100 |  | CS(=O)(=O)Nc1ccc2c(c1)C(=O)CC1(CCN(CCc3ccccc3)CC1)O2.Cl | 7 | 5
 | 900 | CS(=O)(=O)Nc1ccc2c(c1)C(=O)CC1(CCN(CCc3ccc([N+](=O)[O-])cc3)CC1)O2.Cl | 5 | 
500 |  | CS(=O)(=O)Nc1ccc2c(c1)C(=O)CC1(CCN(CCc3ccccn3)CC1)O2.Cl.O | 33 | 10
